pEC50: −log10 of the molar value.
What was measured:
[1] = tested on: Human Astrocytes; assay: Cholesterol efflux (apoE4 lipidation) assay, BODIPY-cholesterol translocation to apoE4; type: cell-based; conditions: for EC50 / pEC50: Astrocyte, Human astrocytes, efflux to apoE4; for EC50: Table 2; for pEC50: Table 4
Experimental: Cholesterol efflux assay in HTS. CCF-STTG1 cells were plated in 384-well plates containing 50 μL/well RPMI supplemented with 10% FBS at a density of 5×10^3 cells/well, using a Multidrop 384 Reagent Dispenser (Thermo Scientific), and incubated for 48 hr. Cells were washed twice with 50 μl PBS using an EL406 Microplate Washer Dispenser (BioTek, Winooski, Vt., USA) before being labeled with 50 μl of 10 μM BODIPY-cholesterol+100 μM cyclodextrin (CD) in RPMI 1640 medium containing 0.2% BSA. The labeling medium was added using in a Washer Dispenser II (GNF, San Diego, Calif., USA). Plates were transferred automatically to a Liconic incubator (Mauren Principality of Liechtenstein) and incubated for 24 h. Subsequently, cells were washed twice as described above to remove external cholesterol. Next, 50 μl of the efflux medium was added, which contained recombinant apoE4 at a concentration of 40 μg/ml in transparent RPMI 1640 (no phenol red), again using Washer Dispenser II (GNF, San Diego, Calif., USA). The positive control contained the ABCA1 activator, CS-6253 (120 μg/ml) in addition to the acceptor (apoE4). After 7 hr of efflux, the medium was transferred to new plates, using the Bravo Automated Liquid Handling system (Agilent, Santa Clara, Calif., USA). Fluorescence polarization (FP) and fluorescence intensity (FI) of the medium were measured in a PheraStar FS plate reader (BMG Labtech, Ortenberg, Germany).
The apoE4 lipidation Assay is based on measurements of the ability of astrocytes to translocate fluorescently labelled cholesterol to recombinant non lipidated apoE4 and on the extent to which this effect is enhanced by treatment with each of the screened compounds (FIG. 2, 3). This assay is an adaptation of previous studies of cholesterol translocation from labelled astrocytes to external acceptors such as apoE4 [16], except that in order to differentiate between gene expression related effects and direct biochemical effects of the hits on ABCA1, the incubations of the HTS with the cells was limited to 8 hours. The extent to which the cells secret the labelled cholesterol and transfer it to non-lipidated apoE4 was determined by regular fluorescence as well as by fluorescence polarization microscopy. The latter technique in this context is used due to its sensitivity to particle size which decreases the background signal by differentiating between free and particle bound released cholesterol.
The assay was characterized biochemically and it was shown that translocation of labelled cholesterol to apoE4 is time and concentration dependent (FIG. 4) and was increased by the positive control ABCA1 agonistic 26mer peptide CS-6253 [4] (FIG. 5). The assay was used for high throughput screening (HTS) and selection of positive hits. 50,000 compounds from commercially available libraries were screened utilizing the double criteria of a signal greater than 3 standard deviations from the mean of all of the screened compounds, and being similar or greater than the apoE4 lipidation driven by the ABCA1 agonistic peptide CS-6253. Additional criteria included the tier drug ability value with tier 1 being best and tier 3 being least suitable, as well as a hydrophobicity value of 2<log P<5 value. This yielded 14 hits, designated Compounds #1-#14 (FIG. 6).

[2] = biological target: T1, ABCA1 (Homo sapiens, UniProt O95477); assay: Target recognition: binding to ABCA1 (summary of labelled and label free MST)
T1 construct: The proteins used in these experiments were Extra-Cellular Domain 1 (ECD1) of ABCA1 and Extra-Cellular Domain 2 (ECD2); purchased Biomatick
T1 sequence (O95477 43-639 limits assumed): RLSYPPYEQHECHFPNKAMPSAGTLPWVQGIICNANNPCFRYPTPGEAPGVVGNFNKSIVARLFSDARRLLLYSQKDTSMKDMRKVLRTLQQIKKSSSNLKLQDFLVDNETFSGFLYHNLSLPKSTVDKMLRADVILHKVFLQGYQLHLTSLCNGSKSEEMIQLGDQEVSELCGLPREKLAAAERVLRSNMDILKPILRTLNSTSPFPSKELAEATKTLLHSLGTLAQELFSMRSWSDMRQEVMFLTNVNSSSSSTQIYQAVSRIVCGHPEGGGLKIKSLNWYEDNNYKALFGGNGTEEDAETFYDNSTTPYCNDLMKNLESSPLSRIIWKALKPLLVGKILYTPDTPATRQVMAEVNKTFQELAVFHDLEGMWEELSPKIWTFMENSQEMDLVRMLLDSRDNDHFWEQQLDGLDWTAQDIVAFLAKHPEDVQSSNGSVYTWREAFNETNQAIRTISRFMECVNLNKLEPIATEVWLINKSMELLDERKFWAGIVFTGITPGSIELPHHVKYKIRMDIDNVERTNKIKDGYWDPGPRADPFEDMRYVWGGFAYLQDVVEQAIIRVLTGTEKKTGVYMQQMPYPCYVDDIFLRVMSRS
Experimental: Microscale thermophoresis (MST) measurements. MST measurements of the binding of the HTS hits to the extracellular domain (ECD) of ABCA1 were performed by two complimentary methods utilizing either fluorescently labeled proteins or the endogenous fluorescence of unlabeled proteins. This was pursued as follows:
The experiments were performed with the purified extracellual domains 1 (ECD1) and 2 (ECD2) of ABCA1 [18]. Two complementary MST tests were performed, in which either the proteins were labeled with a fluorescence moiety or the endogenous fluorescence of the unlabeled proteins was monitored).
A. HTS Screening and Target Recognition • 1.

SMILES	EC50 [1] [µM]	pEC50 [1]	MST binding to ECD1 [2]	Stimulation of cholesterol efflux from human astrocytes to apoE4 ([1]; test compounds 50 μM)
O=[N+]([O-])c1ccc(N2CCCCC2)c2nonc12 [Hit #7]	8.56	5.07	scored positively	activates cholesterol efflux
CSC(SC)=C1CC/C(=C/c2ccc(N(C)C)cc2)C1=O [Hit #14]	> 44.8	< 4.35	–	–

Second part, led by results:

EC50 [1] [µM]	pEC50 [1]	MST binding to ECD1 [2]	SMILES	Stimulation of cholesterol efflux from human astrocytes to apoE4 ([1]; test compounds 50 μM)
> 44.8	< 4.35	–	C[C@]12CC[C@@H](O)CC1CCC1C2CC[C@](C)(C(=O)O)C1/C=C1/Nc2ccccc2C1=O (some centres unmarked) [Hit #12]	–
> 44.8	< 4.35	bind saturably to ECD1	Cc1nn(CC(=O)c2ccc(Br)s2)c(C)c1[N+](=O)[O-] [Hit #3]	–
28.3	4.55	bind saturably to ECD1	CC(C)(C)C(=O)COC(=O)c1ccccc1SCc1cc(-c2ccco2)on1 [Hit #4]	–
